Laboratory results as given in patent publication US11401255B2, “Small molecule activators of Parkin enzyme function” (Mayo Foundation for Medical Education and Research, priority 2016, dated 2022).
Several values for one entry are separate records, joined by “and”; a condition that tells them apart may be missing. Equal values may be shown once. Read-outs that look alike come from different tables or passages of the source.

Assays:
[1] = Caco-2 A-B permeability assay; assay type: in vitro ADME; conditions: human
Method: (§1) Caco-2 cells were cultivated in 75 cm^2 flasks to 80-90% of confluence according to the ATCC and Millipore recommendations (Millipore protocol note PC1060EN00P) in a humidified atmosphere at 37° C. and 5% CO2. Cells were detached with Trypsin/EDTA solution and re-suspended in the cell culture medium to a final concentration of 2×10^5 cells/mL. 500 μL of the cell suspension was added to each well of an HTS 24-multiwell insert system and 35 mL of prewarmed complete medium was added to the feeder tray. Caco-2 cells were incubated in the multiwell insert system for 10 days before the transport experiments. The medium in the filter plate and feeder tray was changed every other day. After 10 days of cell growth, the integrity of the monolayer was verified by measuring the transepithelial electrical resistance (TEER) for every well using the Millicell-ERS system ohm meter. […] The 24-well insert plate was removed from its feeder plate and placed in a new sterile 24-well transport analysis plate. The medium was aspirated and inserts washed with PBS.
(§2) To determine the rate of drug transport in apical (A) to basolateral (B) direction, 300 μL of the test compound solution in buffer (HBSS, 5.6 mM glucose, 10 mM HEPES, pH=7.4) was added into the filter wells and 1000 μL of the same buffer was added to wells in the transport analysis plate. The plates were incubated for 90 min. at 37° C. with shaking at 50 rpm. 75 μL aliquots were taken from the apical and basolateral compartment for LC-MS/MS analysis. All samples for LC-MS/MS analysis were extracted by acetonitrile (×2 volume) followed by protein sedimentation by centrifuging at 10000 rpm for 10 minutes. Supernatants were analyzed using the HPLC system coupled with a tandem mass spectrometer.
(§3) The apparent permeability (Papp) was calculated for the Caco-2 permeability assay using the following equation: Papp=(VA/((Area)×(Time))×([drug]acc/[drug]initial,d), where: […]

Caco-2 cells = test: Caco-2 A-B permeability assay; assay type: in vitro ADME; conditions: A-B, 90 min, pH=7.4
Method: as §1, §2, §3

Parkin = Parkin (Homo sapiens (Human), UniProt O60260); test: Primary HCI assay of EGFP-Parkin translocation to mitochondria; assay type: cell-based; conditions: for activity in EGFP-Parkin translocation to damaged mitochondria: 1 μM; for EC50: primary assay screen, Parkin translocation to mitochondria
Method: GFP-Parkin is localized throughout the cell in unstressed cells but translocates to mitochondria when the mitochondrial membrane potential is compromised and Parkin is activated. After automated image acquisition of fixed cells, regions of interest of each cell were defined with the analysis software. […] To quantify the relocalization of GFP-Parkin to mitochondria, the ratio of the GFP intensity in the cytoplasm and the nucleus was calculated. Under non-stressed condition, this ratio is about 1. FIG. 1B is a bar graph showing the results of the assay with a Z factor (Z′) of 0.5-0.8, which indicates its robustness and usefulness as a screening assay. Validation of the assay has been performed by using PINK1 siRNA.
FIGS. 2A-2C show a primary HCI assay with CCCP titration. FIG. 2A is a graphic description of the primary HCI assay of EGFP-Parkin translocation. HeLa cells stably expressing GFP-Parkin were seeded with 1350 cells per well in 384-well plates (25 μL per well). Cells were allowed to attach overnight before drug was added 2× concentrated in a volume of 25 μL in triplicates. After 2 h, 50 μL of a 2× low-dose CCCP (yielding a final concentration of 3.5 μM CCCP) was added to all wells that contained test compounds and for the negative control. For positive control wells, CCCP was added in a final concentration of 10 μM. After 2 h incubation with CCCP, cells were fixed and labeled with Hoechst for at least 1 h before cells were imaged. […] Values were being normalized to negative and positive control values and plotted as % activity. Z′ was calculated for quality control. Positive controls were indicated in green, negative control wells in red. Drugs that lead to more than 50% activity are considered positive (blue).
Functional testing of compounds was performed using an established primary HCI assay for Parkin translocation, which correlates well with enzymatic activation (Fiesel et al., J. Cell Science (2014) 127:3488-3504; Fiesel et al., Human Mutation (2015) 36:774-786). In brief, 1400 HeLa cells stably expressing EGFP-Parkin were seeded into optical 384-well plates (Greiner BioOne) in 25 μL media and allowed to adhere for 40 h. Compounds 1, 2, 3, 4, and 31 were added to the plate as 2× concentrated stocks. Control wells were treated with equal volume of DMSO in media. After 2 h, unless otherwise stated, CCCP was added as 2× concentrated stock with a final assay concentration of 10 μM for PC wells and 3.5 μM for test and NC wells. This low dose of CCCP was experimentally determined by a dose response curve of CCCP to result in no Parkin translocation (FIG. 13). After another 2 h, cells were fixed in 4% paraformaldehyde for 10 min and stained with Hoechst 33342 (1:5000, Invitrogen) before plates were imaged and analyzed.
Image acquisition was performed on a BD Pathway 855 with the Attovision V1.6 software (BD Biosciences). Wells were imaged with a 20× objective using a 2×2 montage with laser autofocus. EGFP exposure time was 0.0175 sec, Hoechst 0.0015 sec. Raw images were not processed and directly analyzed using a build-in ‘RING—2 output’ algorithm. Values were exported and normalized using JMP 11 software and transferred to GraphPad Prism 7 for quality control, graphing and curve fitting for DRCs with a variable slope using four parameters. […] Values were normalized to both PC and NC values from 24 wells each per plate and the Z′ score was calculated. Plates with Z′<0.5 were repeated.

CYP 2C9 = CYP 2C9 (Homo sapiens (Human), UniProt P11712); test: P450-Glo CYP450 inhibition, CYP 2C9; assay type: in vitro ADME; conditions: CYP 2C9, 10 μM; for inhibition at 10 µM: human, P450-Glo Assay System (Promega), CYP 2C9 membranes
Method: CYP450 inhibition profiling provides valuable information regarding any possible drug-drug interactions for a test compound.
All experiments were performed using P450-Glo™ Assay Systems (Promega) in accordance with the manufacturer's protocols. The P450-Glo™ Assays provide a luminescent readout-based method for measuring cytochrome P450 activity. A conventional cytochrome P450 reaction was performed by incubating the cytochrome P450 and a luminogenic cytochrome P450 substrate. The substrates in the P450-Glo™ assays are derivatives of beetle luciferin. The derivatives themselves are not substrates for luciferase but are converted by cytochrome P450s to luciferin, which in turn reacts with luciferase to produce light. The amount of light produced was directly proportional to cytochrome P450 activity. All test points were performed in quadruplicates. Control membranes (without CYPs) represented the Negative control (baseline).
The following reference compounds were used to assess CYP inhibition: […]

[2] = Caco-2, pH 7.4, A-B, read-out: Permeability (individual replicates 1, 2)
[3] = Caco-2, pH 7.4, A-B, read-out: Permeability Mean
[4] = read-out: Inhibition, % (individual replicates)

CYP 2C9, sequence (P11712 whole entry): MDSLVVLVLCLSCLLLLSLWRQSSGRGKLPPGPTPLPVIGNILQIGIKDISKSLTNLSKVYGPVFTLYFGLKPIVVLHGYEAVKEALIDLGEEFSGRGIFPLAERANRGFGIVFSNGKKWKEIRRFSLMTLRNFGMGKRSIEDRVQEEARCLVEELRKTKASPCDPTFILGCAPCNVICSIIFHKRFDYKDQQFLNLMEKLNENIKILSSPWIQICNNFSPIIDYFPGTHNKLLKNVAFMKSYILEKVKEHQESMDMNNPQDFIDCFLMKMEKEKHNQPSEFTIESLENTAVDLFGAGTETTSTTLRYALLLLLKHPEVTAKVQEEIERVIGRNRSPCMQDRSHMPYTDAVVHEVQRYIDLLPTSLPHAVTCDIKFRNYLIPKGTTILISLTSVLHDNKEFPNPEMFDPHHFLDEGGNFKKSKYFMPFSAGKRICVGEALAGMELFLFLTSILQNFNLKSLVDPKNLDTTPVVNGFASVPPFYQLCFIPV
Parkin, sequence (O60260 whole entry): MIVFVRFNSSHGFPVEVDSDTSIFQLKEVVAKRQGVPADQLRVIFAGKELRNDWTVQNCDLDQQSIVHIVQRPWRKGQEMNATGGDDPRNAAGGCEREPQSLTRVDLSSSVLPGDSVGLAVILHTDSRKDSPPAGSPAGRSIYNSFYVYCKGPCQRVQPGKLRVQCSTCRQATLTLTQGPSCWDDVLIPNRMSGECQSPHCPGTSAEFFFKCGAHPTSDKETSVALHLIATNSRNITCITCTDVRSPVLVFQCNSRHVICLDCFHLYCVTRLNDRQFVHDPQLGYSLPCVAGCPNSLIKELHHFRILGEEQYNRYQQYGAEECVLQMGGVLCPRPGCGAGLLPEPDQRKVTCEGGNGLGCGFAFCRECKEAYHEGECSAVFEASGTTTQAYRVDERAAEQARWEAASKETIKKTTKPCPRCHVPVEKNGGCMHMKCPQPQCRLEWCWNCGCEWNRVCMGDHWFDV

In the case of O=C(Cn1cnc2c1CCCC2)Nc1ccc(-c2ccccc2)cc1 [Compound 1], the Papp at 90 min [1, 2] is reported as 8.3 ×10⁻⁶ cm/s, the Papp at 90 min [1, 3] is reported as 10.2 ×10⁻⁶ cm/s and the “Permeability (individual replicates 1, 2)” value (“Permeability” below) (Caco-2 cells) is reported as 12.1 10^−6 cm/s. The “activity in EGFP-Parkin translocation to damaged mitochondria” value (“activity in EGFP-Parkin translocation” below) (Parkin) was “showed activity”, the EC50 (Parkin) was 371 nM and the “Inhibition, % (individual replicates)” value (CYP 2C9) was 40.6% and 11.1% and 15.7% and 28.5%. The inhibition at 10 µM (CYP 2C9; read-out: Inhibition, % Mean) was 24%.

With CC(C)c1nccn1CC(=O)Nc1ccc(-c2ccccc2)cc1 [Compound 2] the Papp at 90 min [1, 2] was 17.9 ×10⁻⁶ cm/s, the Papp at 90 min [1, 3] was 18.2 ×10⁻⁶ cm/s and the “Permeability” value (Caco-2 cells) was 18.5 10^−6 cm/s. For the same molecule, the “activity in EGFP-Parkin translocation” value (Parkin) was “showed activity”, the EC50 (Parkin) was 549 nM and the “Inhibition, % (individual replicates)” value (CYP 2C9) was 30.3% and 25.4% and 21.4%. It also gave an inhibition at 10 µM (CYP 2C9; [4]) of 36.6% and an inhibition at 10 µM (CYP 2C9; read-out: Inhibition, % Mean) of 28.4%.

For CC(C)(C)Sc1ccc(NC(=O)Cn2ccnc2)cc1 [Compound 3], the Papp at 90 min [1, 2] was 39.5 ×10⁻⁶ cm/s, the Papp at 90 min [1, 3] was 40.6 ×10⁻⁶ cm/s and the “Permeability” value (Caco-2 cells) was 41.7 10^−6 cm/s. For the same molecule, the “activity in EGFP-Parkin translocation” value (Parkin) was “showed activity”, the EC50 (Parkin) was 405 nM and the “Inhibition, % (individual replicates)” value (CYP 2C9) was 98.8% and 98.0% and 97.4%. It also gave an inhibition at 10 µM (CYP 2C9; [4]) of 96.2% and an inhibition at 10 µM (CYP 2C9; read-out: Inhibition, % Mean) of 97.6%.

Work on O=C(Cn1ccnc1-c1ccccn1)Nc1ccc(-c2ccccc2)cc1 [Compound 4] yielded a Papp at 90 min ([1]; Caco-2, A-B, pH=7.4, read-out: Permeability (individual replicates 1, 2)) of 15.9 ×10⁻⁶ cm/s, a Papp at 90 min [1, 2] of 14.6 ×10⁻⁶ cm/s and a Papp at 90 min [1, 3] of 15.3 ×10⁻⁶ cm/s. For the same molecule, the “activity in EGFP-Parkin translocation” value (Parkin) was “showed activity”, the EC50 (Parkin) was 164 nM and the “Inhibition, % (individual replicates)” value (CYP 2C9) was 27.3% and 11.9% and 4.6% and −11.1%. For the same molecule, the inhibition at 10 µM (CYP 2C9; read-out: Inhibition, % Mean) was 8.2%.

In the case of Cc1nc2c(c(N3CCCN(Cc4ccccc4)CC3)n1)CCCC2 [Compound 31], the Papp at 90 min [1, 2] is reported as 52.8 ×10⁻⁶ cm/s, the Papp at 90 min [1, 3] is reported as 49 ×10⁻⁶ cm/s and the “Permeability” value (Caco-2 cells) is reported as 45.2 10^−6 cm/s. For the same molecule, the “activity in EGFP-Parkin translocation” value (Parkin) was “showed activity”, the EC50 (Parkin) was 990 nM and the “Inhibition, % (individual replicates)” value (CYP 2C9) was 50.4% and −18.3% and 11.9% and 13.7%. For the same molecule, the inhibition at 10 µM (CYP 2C9; read-out: Inhibition, % Mean) was 14.5%.
